Like-named read-outs stand apart in the source and are kept apart here. Ends that are not written are not given here.
Experiments:
[1] = tested on: Escherichia coli UB1005; conditions: Table 6
Experimental: (§1) Minimal inhibitory concentration (MIC) determination. The MICs of the peptides were measured using a modified broth microdilution method in Mueller Hinton (MH) medium. Wu et al., J. Biol. Chem. 274: 29-35, 1999. Briefly, the peptides were dissolved and stored in glass vials. The assay was performed in sterile 96-well polypropylene microtitre plates were used. Serial dilutions of the peptides to be assayed were performed in 0.01% acetic acid (Fisher) containing 0.2% bovine serum albumin (Boehringer Mannheim GmbH) at 10× the desired final concentration. Ten microlitres of the 10× peptides were added to each well of a 96-well polypropylene plate containing 90 μl of MH media per well. Bacteria were added to the plate from an overnight culture at 2-7×10^5 colony forming units/ml and incubated over night at 37° C. The MIC was taken as the concentration at which no growth was observed.
(§2) Strains. For the killing assay a mini-Tn5-lux mutant in Pseudomonas aeruginosa H103 was used. The strain is called H1001 and contains a fliC::luxCDABE transcriptional fusion resulting in constitutive expression of luciferase. The bacterial strains used for the antimicrobial activity assays included Escherichia coli UB1005 (F-, nalA37, metB1), a wild-type Salmonella enterica ssp. Typhimurium (S. Typhimurium), wild-type Pseudomonas aeruginosa PAO1 strain H103, Enterococcus faecalis ATCC29212, Staphylococcus aureus ATCC25923, and a clinical isolate of Staphylococcus epidermidis obtained from Dr. D. Speert (Department of Medicine, University of British Columbia). Antifungal activity was tested using a lab isolate of Candida albicans obtained from Dr. B. Dill (Department of Microbiology and Immunology, University of British Columbia).
(§3) In addition, the parent peptide Bac2A was included in these studies as a standard. The minimal inhibitory concentrations (MIC) were determined for the important medical pathogens Pseudomonas aeruginosa, Escherichia coli, Salmonella typhimurium, Staphylococcus aureus, Staphylococcus epidermidis, Enterococcus faecaelis, and the yeast Candida albicans in Mueller-Hinton media.

[2] = tested on: Salmonella enterica ssp. Typhimurium; conditions: for MIC S. Typhim.: Table 6; for MIC S. typhimurium: ssp. Typhimurium
Experimental: as §1, §2, §3

[3] = tested on: Enterococcus faecalis ATCC29212
Experimental: as §1, §2, §3

[4] = tested on: Staphylococcus aureus ATCC25923
Experimental: as §1, §2, §3

[5] = tested on: Staphylococcus epidermidis; conditions: for MIC S. epi.: Table 6
Experimental: as §1, §2, §3

[6] = tested on: Pseudomonas aeruginosa PAO1 strain H103; conditions: for MIC P. aerug: Table 6; for MIC P. aeruginosa / MIC P. aeruginosa Muller Hinton Media / MIC P. aeruginosa With 10 μM Mg / MIC P. aeruginosa With 2 mM Mg: PAO1
Experimental: as §1, §2, §3

[7] = tested on: Candida albicans
Experimental: as §1, §2, §3

[8] = tested on: Pseudomonas aeruginosa strain H1001 fliC::luxCDABE; assay: Luminescence-based assay for the non-cleaved (bound) peptides on cellulose membranes; format: cell-based; conditions: for Luminescence at the given time in minutes: 0 / Luminescence at the given time in minutes: 20 / Luminescence at the given time in minutes: 40 / Luminescence at the given time in minutes: 60 / Luminescence at the given time in minutes: 80 / Luminescence at the given time in minutes: 100 / Luminescence at the given time in minutes: 120 / Luminescence at the given time in minutes: 180 / Luminescence at the given time in minutes: 240: cellulose-bound peptide; for Luminescence at the given time in minutes: 0: 0 min; for Luminescence at the given time in minutes: 20: 20 min; for Luminescence at the given time in minutes: 40: 40 min; for Luminescence at the given time in minutes: 60: 60 min; for Luminescence at the given time in minutes: 80: 80 min; for Luminescence at the given time in minutes: 100: 100 min; for Luminescence at the given time in minutes: 120: 120 min; for Luminescence at the given time in minutes: 180: 180 min; for Luminescence at the given time in minutes: 240: 240 min; for Activity Class bound: uncleaved cellulose-bound peptides
In short: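 Peptides remained bound to cellulose spots, which were ethanol-washed and equilibrated in 100 mM Tris pH 7.3. Constitutively lux-expressing P. aeruginosa (OD600 0.35 culture diluted 1:25) added in 10 mM Tris-HCl pH 7.3, 20 mM glucose at 37° C. Luminescence (RLU) followed over 14 time points; peptides binned into six activity classes.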

[9] = tested on: Pseudomonas aeruginosa strain H1001; assay: Assay for the cleaved (free, soluble) peptides from cellulose support, luminescence killing assay; format: cell-based; set-up: key: 1: Peptides showing stronger killing than Bac2A at a 4 to 8-fold higher dilution; Peptides showing stronger killing compared to that of Bac2A at a 4-fold higher dilution; 3: Peptides similar to Bac2A; 4: Peptides similar to Bac2A at the highest concentration but demonstrating weaker killing at a 2-fold dilution; 5: Peptides giving very weak or no killing at a 2-fold dilution; 6: Peptides with weak killing activity at the highest concentration; conditions: for Soluble Class: Table 5, free peptides; for Activity Class Soluble: free (cleaved) peptides, killing relative to Bac2A
In short: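 Cellulose-synthesized peptides (amidated C-terminus, two β-alanines) cleaved by ammonia, released from punched spots 30 min at 37 °C, then serially diluted. P. aeruginosa H1001 (constitutive fliC::luxCDABE) overnight culture diluted 1:500 in LB or 100 mM Tris pH 7.3/20 mM glucose. Killing followed as time-dependent luminescence loss at 37 °C.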

Row | Substance | MIC E. coli [1] | MIC S. Typhim. [2] | MIC E. faecalis ([3]; Table 6) | MIC S. aureus ([4]; Table 6) | MIC S. epi. [5] | MIC P. aerug [6] | MIC C. albicans ([7]; Table 6) | MIC S. typhimurium [2] | MIC E. faecalis ([3]; ATCC29212) | MIC S. aureus ([4]; ATCC25923) | MIC S. epidermidis [5] | MIC P. aeruginosa [6] | MIC P. aeruginosa Muller Hinton Media [6] | MIC P. aeruginosa With 10 μM Mg [6] | MIC P. aeruginosa With 2 mM Mg [6] | MIC C. albicans [7] | Luminescence at the given time in minutes: 0 [8] | Luminescence at the given time in minutes: 20 [8] | Luminescence at the given time in minutes: 40 [8] | Luminescence at the given time in minutes: 60 [8] | other results
1 | Bac109: peptide of Table 6 (substitution peptides and truncation variants of Bac2A); sequence in Table 1 (RIVVIRVAR) | n.s. | n.s. | n.s. | n.s. | n.s. | n.s. | n.s. |  |  |  |  |  |  |  |  |  |  |  |  |  | 
2 | Bac112: peptide of Table 6 (substitution peptides and truncation variants of Bac2A); sequence in Table 1 (ARIVVIRV) | n.s. | n.s. | n.s. | n.s. | n.s. | n.s. | n.s. |  |  |  |  |  |  |  |  |  |  |  |  |  | 
3 | Bac118: peptide of Table 6 (substitution peptides and truncation variants of Bac2A); sequence in Table 1 (RIVVIRV) | n.s. | n.s. | n.s. | n.s. | n.s. | n.s. | n.s. |  |  |  |  |  |  |  |  |  |  |  |  |  | 
4 | Bac241: peptide of Table 6 (substitution peptides and truncation variants of Bac2A); sequence in Table 1 (RLERIVVIRVAR) | n.s. | n.s. | n.s. | n.s. | n.s. | n.s. | n.s. |  |  |  |  |  |  |  |  |  |  |  |  |  | 
5 | Bac263: peptide of Table 6 (substitution peptides and truncation variants of Bac2A); sequence in Table 1 (RLAGIVVIRVAR) | n.s. | n.s. | n.s. | n.s. | n.s. | n.s. | n.s. |  |  |  |  |  |  |  |  |  |  |  |  |  | 
6 | Bac297: peptide of Table 6 (substitution peptides and truncation variants of Bac2A); sequence in Table 1 (RLARICVIRVAR) | n.s. | n.s. | n.s. | n.s. | n.s. | n.s. | n.s. |  |  |  |  |  |  |  |  |  |  |  |  |  | 
7 | ILRRVRVRAVAI-NH2 (C-terminus assumed) [Bac022] |  |  |  |  |  |  |  | 272 µg/mL | 272 µg/mL | 125 µg/mL | 136 µg/mL | 250 µg/mL | 250 µg/mL | 250 µg/mL | >250 µg/mL | 272 µg/mL | 4336 RLU | 7179 RLU | 5180 RLU | 4505 RLU | Luminescence at the given time in minutes: 80 [8]: 3675 RLU; Luminescence at the given time in minutes: 100 [8]: 3365 RLU; Luminescence at the given time in minutes: 120 [8]: 3044 RLU; Luminescence at the given time in minutes: 180 [8]: 2912 RLU; Luminescence at the given time in minutes: 240 [8]: 2966 RLU; Activity Class bound [8]: 5 (Peptides reducing luminescence (lux) values to between 1500 to 3000 after 240 min.); Soluble Class [9]: 6; Activity Class Soluble [9]: 6
8 | RAVAVIIRLRRV-NH2 (C-terminus assumed) [Bac014] |  |  |  |  |  |  |  | 11 µg/mL | 11 µg/mL | 13 µg/mL | 8 µg/mL | 33 µg/mL | 33 µg/mL | 16 µg/mL | 63 µg/mL | 8 µg/mL | 5233 RLU | 8217 RLU | 7835 RLU | 7867 RLU | Luminescence at the given time in minutes: 80 [8]: 8100 RLU; Luminescence at the given time in minutes: 100 [8]: 8931 RLU; Luminescence at the given time in minutes: 120 [8]: 8956 RLU; Luminescence at the given time in minutes: 180 [8]: 10738 RLU; Luminescence at the given time in minutes: 240 [8]: 12876 RLU; Soluble Class [9]: 1; Activity Class Soluble [9]: 1
9 | VIRRRRILAAVV-NH2 (C-terminus assumed) [Bac044] |  |  |  |  |  |  |  | 113 µg/mL | > 272 µg/mL | 250 µg/mL | 113 µg/mL | > 250 µg/mL | >250 µg/mL | 250 µg/mL | >250 µg/mL | 136 µg/mL | 5592 RLU | 7069 RLU | 5932 RLU | 5652 RLU | Luminescence at the given time in minutes: 80 [8]: 5206 RLU; Luminescence at the given time in minutes: 100 [8]: 5008 RLU; Luminescence at the given time in minutes: 120 [8]: 4999 RLU; Luminescence at the given time in minutes: 180 [8]: 5060 RLU; Luminescence at the given time in minutes: 240 [8]: 5195 RLU; Activity Class bound [8]: 6 (Peptides having residual luminescence (lux) values greater than 3000 after 240 min.); Soluble Class [9]: 6; Activity Class Soluble [9]: 6
10 | VRLRIRVAVIRA-NH2 (C-terminus assumed) [Bac034] |  |  |  |  |  |  |  | 6 µg/mL | 11 µg/mL | 5 µg/mL | 4 µg/mL | 10 µg/mL | 10 µg/mL | 4 µg/mL | 16 µg/mL | 8 µg/mL | 5305 RLU | 6449 RLU | 4160 RLU | 1454 RLU | Luminescence at the given time in minutes: 80 [8]: 390 RLU; Luminescence at the given time in minutes: 100 [8]: 157 RLU; Luminescence at the given time in minutes: 120 [8]: 64 RLU; Luminescence at the given time in minutes: 180 [8]: 60 RLU; Luminescence at the given time in minutes: 240 [8]: 63 RLU; Activity Class bound [8]: 3 (Peptides similar to Bac2A resulting in lux values of less than 500 after 240 min.); Soluble Class [9]: 1; Activity Class Soluble [9]: 1
